Calls of active or inactive are those of the source. The calls are words filed in the database; no cut-off is given here.

Data set [1] can be described thus: Cytotoxicity against MDCK cells. The following applies: dog. The class given is toxicity, cell-based, Canis lupus familiaris.
Data set [2] in a line: Toxicity in Kunming mouse infected with influenza A virus H1N1 A/Puerto Rico/8/1934 assessed as reduction in body weight at 1.67 to 15 mg/kg, po administered with compound twice daily for 7 days followed by viral infection on day 2 and measured for 14 days relative to oseltamivir. It counts as organism-based. The following applies: in vivo, 336 h, dose 1.67-15 mg/kg, time 14 day.

Data set [3] relates to Influenza A virus. Nature of the data set: Antiviral activity against influenza A virus H1N1 A/Puerto Rico/8/1934 infected in Kunming mouse assessed as survival rate at 5 to 15 mg/kg, po administered with compound twice daily for 7 days followed by viral infection on day 2 and measured for 14 days relative to control. The class given is functional. The following applies: dose 5-15 mg/kg, time 14 day.

Data set [4] relates to Influenza A virus. Nature of the data set: Antiviral activity against influenza A virus H1N1 A/Puerto Rico/8/1934 infected in Kunming mouse assessed as survival rate at 1.67 mg/kg, po administered with compound twice daily for 7 days followed by viral infection on day 2 and measured for 14 days relative to control. It counts as functional. The following applies: H1N1 A/Puerto Rico/8/1934, 336 h, time 14 day.

Data set [5] in a line: Gastrointestinal toxicity in Kunming mouse infected with influenza A virus H1N1 A/Puerto Rico/8/1934 assessed as soft stool at 1.67 to 15 mg/kg, po administered with compound twice daily for 7 days followed by viral infection on day 2 and measured for 14 days. It counts as organism-based. As to conditions: in vivo, 336 h, dose 1.67-15 mg/kg, time 14 day.
Data set [6] in a line: Toxicity in Kunming mouse infected with influenza A virus H1N1 A/Puerto Rico/8/1934 assessed as reduction in body weight at 5 to 15 mg/kg, po administered with compound twice daily for 7 days followed by viral infection on day 2 and measured for 14 days relative to oseltamivir. The class given is organism-based. The following applies: in vivo, 336 h, dose 5-15 mg/kg, time 14 day.

Data set [7] deals with Influenza A virus. Nature of the data set: Antiviral activity against Influenza A virus H3N2 subtype. The class given is functional, organism-based.
Data set [8] relates to Infectious bronchitis virus. The data set is described as follows: Antiviral activity against Infectious bronchitis virus. The class given is functional, organism-based.

Usually CC50 stands for the concentration at which the toxic effect on the cells reaches its halfway point. Higher therefore signals lower toxicity to the cells. For the compound `CC(=O)Nc1ccc2oc(-c3ccnc(C(=O)N4CCN([C@H](c5ccc(F)cc5)c5nnn(C)n5)CC4)c3)nc2c1`, the CC50 in data set [1] is more than 100 µM. The Activity result is “Non-Toxic” in data set [2] and “Toxic” in data set [5]. Further, in data set [3], the Survival stood at 100%. Further, in data set [4], the survival at 1.67 mg/kg amounted to 70%.
For `CC(=O)Nc1ccc2oc(-c3ccnc(C(=O)N4CCN([C@H](c5ccccc5)c5nnn(C)n5)CC4)c3)nc2c1`, the Activity result in data set [6] was “Non-Toxic”. The result in data set [7] and in data set [8] was inactive. The Survival in data set [3] was found to be 100%. In addition, the survival at 1.67 mg/kg in data set [4] worked out at 80%.

The record behind these values is ChEMBL document CHEMBL5385857, “Optimization and SAR research at the benzoxazole and tetrazole rings of JNJ4796 as new anti-influenza A virus agents, part 2” (Eur J Med Chem, 2023).
